Assays:
[1] = target: T1, Protein deacetylase HDAC6 (Homo sapiens, UniProt Q9UBN7); experiment: Inhibition of full length human N-terminal FLAG-tagged HDAC6 (1 to 1215 residues) expressed in HEK293 cells preincubated for 15 mins followed by acetyl-Gly-Ala-[acetyl-Lys]-AMC substrate addition measured after 30 mins by fluorimetric method; type: cell-based
T1 sequence (Q9UBN7 whole entry): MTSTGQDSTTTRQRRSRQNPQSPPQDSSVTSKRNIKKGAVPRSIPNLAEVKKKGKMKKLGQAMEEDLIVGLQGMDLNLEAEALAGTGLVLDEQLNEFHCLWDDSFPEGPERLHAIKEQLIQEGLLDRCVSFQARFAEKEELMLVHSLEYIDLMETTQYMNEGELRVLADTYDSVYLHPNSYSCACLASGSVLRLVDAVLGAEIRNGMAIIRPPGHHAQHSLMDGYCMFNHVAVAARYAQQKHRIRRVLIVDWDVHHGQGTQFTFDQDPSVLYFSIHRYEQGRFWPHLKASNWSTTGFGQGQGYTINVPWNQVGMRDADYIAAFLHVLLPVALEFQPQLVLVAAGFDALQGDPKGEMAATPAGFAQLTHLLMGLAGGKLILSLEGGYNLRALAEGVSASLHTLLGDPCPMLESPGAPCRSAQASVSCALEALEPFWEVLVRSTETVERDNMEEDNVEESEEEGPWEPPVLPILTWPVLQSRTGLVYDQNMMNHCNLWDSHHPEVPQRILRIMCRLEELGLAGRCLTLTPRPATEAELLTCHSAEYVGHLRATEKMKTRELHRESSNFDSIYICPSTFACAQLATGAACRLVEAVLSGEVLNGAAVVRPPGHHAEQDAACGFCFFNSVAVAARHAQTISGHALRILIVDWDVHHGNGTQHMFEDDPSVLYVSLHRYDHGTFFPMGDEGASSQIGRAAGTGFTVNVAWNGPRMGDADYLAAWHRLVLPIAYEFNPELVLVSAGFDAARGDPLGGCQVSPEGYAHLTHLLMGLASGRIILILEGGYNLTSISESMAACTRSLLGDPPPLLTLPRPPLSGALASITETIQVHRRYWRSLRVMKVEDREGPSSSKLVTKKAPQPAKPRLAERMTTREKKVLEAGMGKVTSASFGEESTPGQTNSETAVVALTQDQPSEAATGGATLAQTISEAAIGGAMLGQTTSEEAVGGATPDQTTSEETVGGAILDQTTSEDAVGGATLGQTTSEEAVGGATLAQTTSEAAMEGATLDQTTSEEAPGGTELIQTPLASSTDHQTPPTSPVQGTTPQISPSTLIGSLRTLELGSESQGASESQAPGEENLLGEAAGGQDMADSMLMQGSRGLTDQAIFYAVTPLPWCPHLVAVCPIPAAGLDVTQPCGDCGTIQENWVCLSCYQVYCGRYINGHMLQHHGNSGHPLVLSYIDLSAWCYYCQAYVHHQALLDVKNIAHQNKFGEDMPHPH

[2] = target: T2, Histone deacetylase 8 (Homo sapiens, UniProt Q9BY41); experiment: Inhibition of full length human N-terminal FLAG-tagged HDAC8 (1 to 377 residues) expressed in HEK293 cells preincubated for 15 mins followed by Boc-[trifluoroacetyl-Lys]-AMC substrate addition measured after 30 mins by fluorimetric method; type: cell-based
T2 sequence (Q9BY41 whole entry): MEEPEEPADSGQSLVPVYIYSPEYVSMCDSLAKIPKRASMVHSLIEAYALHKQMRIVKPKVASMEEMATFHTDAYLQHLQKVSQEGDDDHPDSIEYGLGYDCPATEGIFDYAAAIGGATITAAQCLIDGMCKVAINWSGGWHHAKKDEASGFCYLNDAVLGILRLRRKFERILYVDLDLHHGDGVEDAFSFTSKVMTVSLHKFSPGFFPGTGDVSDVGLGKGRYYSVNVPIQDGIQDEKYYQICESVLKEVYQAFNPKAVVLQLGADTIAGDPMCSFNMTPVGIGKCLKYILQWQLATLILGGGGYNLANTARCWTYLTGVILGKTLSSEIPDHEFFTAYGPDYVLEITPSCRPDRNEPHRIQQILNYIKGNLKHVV

IC50 [1]: 0.05 µM
IC50 [2]: 12 µM
SMILES: O=C(CS)NCCCCCn1ccc2cc(Cl)c(Cl)cc21
